Measured values as given in patent publication US10758534B2 (Vertex Pharmaceuticals Incorporated, priority 2014, dated 2020).

Biological target: T1, F508del (Homo sapiens, UniProt P13569, DEL508-508)
T1 construct: expressed in transfected cells
Experiment: Protocol 1: membrane potential optical assay (FLIPR III, voltage sensing dye), identification of potentiator compounds
Assay type: cell-based
Conditions: Table 3, compounds of Table 1
Summary of the method: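 Membrane potential in forskolin-activated, temperature-rescued F508del NIH 3T3 cells is followed with a voltage-sensing dye on FLIPR III. A chloride ion gradient created at the single addition step provides the driving force, after prior compound treatment.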

T1 sequence (P13569 with tags, fused parts or gaps DEL508-508): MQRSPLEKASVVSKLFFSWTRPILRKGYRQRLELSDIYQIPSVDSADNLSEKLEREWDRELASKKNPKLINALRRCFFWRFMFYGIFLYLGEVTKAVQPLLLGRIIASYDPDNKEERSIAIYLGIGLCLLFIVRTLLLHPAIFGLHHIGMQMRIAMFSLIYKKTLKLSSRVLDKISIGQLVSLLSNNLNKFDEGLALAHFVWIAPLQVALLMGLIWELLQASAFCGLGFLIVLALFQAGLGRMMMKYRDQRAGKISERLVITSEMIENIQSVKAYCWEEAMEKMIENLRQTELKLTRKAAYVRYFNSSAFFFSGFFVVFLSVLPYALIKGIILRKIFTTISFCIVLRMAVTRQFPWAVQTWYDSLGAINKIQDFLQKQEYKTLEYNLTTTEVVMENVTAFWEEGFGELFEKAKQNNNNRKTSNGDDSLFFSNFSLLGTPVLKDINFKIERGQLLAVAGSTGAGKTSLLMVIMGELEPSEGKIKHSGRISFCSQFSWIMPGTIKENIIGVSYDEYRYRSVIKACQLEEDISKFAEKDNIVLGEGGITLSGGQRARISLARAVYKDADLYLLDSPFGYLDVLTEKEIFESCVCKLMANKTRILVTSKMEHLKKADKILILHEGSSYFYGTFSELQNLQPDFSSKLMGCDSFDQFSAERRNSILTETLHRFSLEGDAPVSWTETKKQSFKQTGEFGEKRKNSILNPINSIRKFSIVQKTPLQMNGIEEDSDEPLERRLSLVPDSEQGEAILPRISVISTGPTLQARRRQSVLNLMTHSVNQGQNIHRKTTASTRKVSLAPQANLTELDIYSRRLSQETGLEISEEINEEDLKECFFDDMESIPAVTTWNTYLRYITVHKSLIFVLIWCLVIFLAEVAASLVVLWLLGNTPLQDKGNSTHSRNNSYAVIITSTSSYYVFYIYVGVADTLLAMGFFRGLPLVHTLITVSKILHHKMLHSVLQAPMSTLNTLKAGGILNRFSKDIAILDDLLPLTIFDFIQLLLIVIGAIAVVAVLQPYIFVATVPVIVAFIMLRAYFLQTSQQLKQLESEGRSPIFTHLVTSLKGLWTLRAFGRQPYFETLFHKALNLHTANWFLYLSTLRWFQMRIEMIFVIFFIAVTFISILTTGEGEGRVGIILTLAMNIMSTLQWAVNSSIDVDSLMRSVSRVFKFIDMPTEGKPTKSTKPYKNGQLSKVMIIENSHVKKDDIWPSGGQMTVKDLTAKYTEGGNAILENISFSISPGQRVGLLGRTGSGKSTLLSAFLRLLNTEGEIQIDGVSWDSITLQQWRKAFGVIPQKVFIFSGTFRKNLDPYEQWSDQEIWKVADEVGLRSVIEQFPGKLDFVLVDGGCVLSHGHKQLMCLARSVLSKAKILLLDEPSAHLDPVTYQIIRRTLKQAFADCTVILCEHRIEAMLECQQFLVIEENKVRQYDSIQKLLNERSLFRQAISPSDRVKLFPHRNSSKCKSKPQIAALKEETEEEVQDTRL

Compound | EC30
CCNc1ccc(C(=O)NS(=O)(=O)c2cccc(N)n2)c(Oc2c(C)cc(C)cc2C)n1 [Compound 1128, N-[(6-amino-2-pyridyl)sulfonyl]-6-(ethylamino)-2-(2,4,6-trimethylphenoxy)pyridine-3-carboxamide] | ++ (“++” means between 3 uM and 10 uM)
Cc1ccc(-c2ccc(C(=O)NS(=O)(=O)c3ccc[nH]c3=O)c(Oc3ccc(C)cc3C)n2)cc1 [Compound 1129, 2-(2,4-dimethylphenoxy)-N-[(2-oxo-1H-pyridin-3-yl)sulfonyl]-6-(p-tolyl)pyridine-3-carboxamide] | ++ (“++” means between 3 uM and 10 uM)
CCOc1ncc(-c2ccc(C(=O)NS(=O)(=O)c3cccc(N)n3)c(Oc3c(C)cc(C)cc3C)n2)cn1 [Compound 1130, N-[(6-amino-2-pyridyl)sulfonyl]-6-(2-ethoxypyrimidin-5-yl)-2-(2,4,6-trimethylphenoxy)pyridine-3-carboxamide] | ++ (“++” means between 3 uM and 10 uM)
Cc1cc(C)c(Oc2nc(C3CCCCC3)ccc2C(=O)NS(=O)(=O)c2cccc(N)n2)c(C)c1 [Compound 1131, N-[(6-amino-2-pyridyl)sulfonyl]-6-cyclohexyl-2-(2,4,6-trimethylphenoxy)pyridine-3-carboxamide] | +++ (“+++” means <3 uM)
CC(C)Oc1ccc(-c2ccc(C(=O)NS(=O)(=O)c3cccc(N)n3)c(N3CCCC(C4CC4)C3)n2)cn1 (centres unmarked) [Compound 1132, N-[(6-amino-2-pyridyl)sulfonyl]-2-(3-cyclopropyl-1-piperidyl)-6-(6-isopropoxy-3-pyridyl)pyridine-3-carboxamide] | +++ (“+++” means <3 uM)
CCOc1cccc(-c2ccc(C(=O)NS(=O)(=O)c3cccc(N)n3)c(Oc3c(C)cc(C)cc3C)n2)n1 [Compound 1133, N-[(6-amino-2-pyridyl)sulfonyl]-6-(6-ethoxy-2-pyridyl)-2-(2,4,6-trimethylphenoxy)pyridine-3-carboxamide] | +++ (“+++” means <3 uM)
CC(C)Oc1ccc(-c2ccc(C(=O)NS(=O)(=O)c3cccc(N)n3)c(N3CCC(C)(C)CC3)n2)cn1 [Compound 1134, N-[(6-amino-2-pyridyl)sulfonyl]-2-(4,4-dimethyl-1-piperidyl)-6-(6-isopropoxy-3-pyridyl)pyridine-3-carboxamide] | +++ (“+++” means <3 uM)
CC(C)COc1cc(F)cc(-c2ccc(C(=O)NS(=O)(=O)c3ccn[nH]3)c(N3CCCC3C)n2)c1 (centres unmarked) [Compound 1142, 6-(3-fluoro-5-isobutoxy-phenyl)-2-(2-methylpyrrolidin-1-yl)-N-(1H-pyrazol-5-ylsulfonyl)pyridine-3-carboxamide] | ++ (“++” means between 3 uM and 10 uM)
CC(C)COc1cc(F)cc(-c2ccc(C(=O)NS(=O)(=O)c3cccc(N)n3)c(N3CCC(C)(C)[C@@H]3C)n2)c1 [Compound 1144, N-[(6-amino-2-pyridyl)sulfonyl]-6-(3-fluoro-5-isobutoxy-phenyl)-2-[(2S)-2,3,3-trimethylpyrrolidin-1-yl]pyridine-3-carboxamide] | +++ (“+++” means <3 uM)
COC[C@H]1CCCN1c1nc(-c2cc(F)cc(OCC(C)C)c2)ccc1C(=O)NS(=O)(=O)c1cccc(N)n1 [Compound 1149, N-[(6-amino-2-pyridyl)sulfonyl]-6-(3-fluoro-5-isobutoxy-phenyl)-2-[(2R)-2-(methoxymethyl)pyrrolidin-1-yl]pyridine-3-carboxamide] | +++ (“+++” means <3 uM)
CC(C)(C)c1ccc(C(=O)NS(=O)(=O)c2cccc(N)n2)c(OC2CCC2)n1 [Compound 1154, N-[(6-amino-2-pyridyl)sulfonyl]-6-tert-butyl-2-(cyclobutoxy)pyridine-3-carboxamide] | ++ (“++” means between 3 uM and 10 uM)
CCOC1CCN(c2nc(-c3cc(F)cc(OCC(C)C)c3)ccc2C(=O)NS(=O)(=O)c2ccn[nH]2)CC1 [Compound 1155, 2-(4-ethoxy-1-piperidyl)-6-(3-fluoro-5-isobutoxy-phenyl)-N-(1H-pyrazol-5-ylsulfonyl)pyridine-3-carboxamide] | ++ (“++” means between 3 uM and 10 uM)
CC(C)COc1cc(F)cc(-c2ccc(C(=O)NS(=O)(=O)c3cccc(N)n3)c(N3CCC(C)(C)C3C)n2)c1 (centres unmarked) [Compound 1156, N-[(6-amino-2-pyridyl)sulfonyl]-6-(3-fluoro-5-isobutoxy-phenyl)-2-(2,3,3-trimethylpyrrolidin-1-yl)pyridine-3-carboxamide] | +++ (“+++” means <3 uM)

The remaining lines, values ahead:

EC30 | Compound
+++ (“+++” means <3 uM) | CC(C)CCOc1cccc(-c2ccc(C(=O)NS(=O)(=O)c3cccc(N)n3)c(N3CC(C)CC3(C)C)n2)n1 (centres unmarked) [Compound 1135, N-[(6-amino-2-pyridyl)sulfonyl]-6-(6-isopentyloxy-2-pyridyl)-2-(2,2,4-trimethylpyrrolidin-1-yl)pyridine-3-carboxamide]
+++ (“+++” means <3 uM) | CC(C)Oc1ccc(-c2ccc(C(=O)NS(=O)(=O)c3cccc(N)n3)c(N3C[C@@H](C)C[C@H](C)C3)n2)cn1 [Compound 1136, N-[(6-amino-2-pyridyl)sulfonyl]-2-[(3S,5S)-3,5-dimethyl-1-piperidyl]-6-(6-isopropoxy-3-pyridyl)pyridine-3-carboxamide]
++ (“++” means between 3 uM and 10 uM) | Cc1cc(C)c(Oc2nc(C)ccc2C(=O)NS(=O)(=O)c2cccc(N)n2)c(C)c1 [Compound 1137, N-[(6-amino-2-pyridyl)sulfonyl]-6-methyl-2-(2,4,6-trimethylphenoxy)pyridine-3-carboxamide]
+++ (“+++” means <3 uM) | Cc1cc(C)c(Oc2nc(-c3cc(F)cc(OC(C)C)c3)ccc2C(=O)NS(=O)(=O)c2cccc(N)n2)c(C)c1 [Compound 1138, N-[(6-amino-2-pyridyl)sulfonyl]-6-(3-fluoro-5-isopropoxy-phenyl)-2-(2,4,6-trimethylphenoxy)pyridine-3-carboxamide]
+++ (“+++” means <3 uM) | Cc1cc(C)c(Oc2nc(-c3cnc(N(C)C)nc3)ccc2C(=O)NS(=O)(=O)c2cccc(N)n2)c(C)c1 [Compound 1139, N-[(6-amino-2-pyridyl)sulfonyl]-6-[2-(dimethylamino)pyrimidin-5-yl]-2-(2,4,6-trimethylphenoxy)pyridine-3-carboxamide]
+++ (“+++” means <3 uM) | COc1ccc(-c2ccc(C(=O)NS(=O)(=O)c3cccc(N)n3)c(Oc3c(C)cc(C)cc3C)n2)cc1F [Compound 1140, N-[(6-amino-2-pyridyl)sulfonyl]-6-(3-fluoro-4-methoxy-phenyl)-2-(2,4,6-trimethylphenoxy)pyridine-3-carboxamide]
++ (“++” means between 3 uM and 10 uM) | COc1cccc(-c2ccc(C(=O)NS(=O)(=O)c3cccc(N)n3)c(N3[C@H](C)CC[C@@H]3C)n2)n1 [Compound 1141, N-[(6-amino-2-pyridyl)sulfonyl]-2-[(2S,5R)-2,5-dimethylpyrrolidin-1-yl]-6-(6-methoxy-2-pyridyl)pyridine-3-carboxamide]
++ (“++” means between 3 uM and 10 uM) | CCCOc1cccc(-c2ccc(C(=O)NS(=O)(=O)c3ccc[nH]c3=O)c(Oc3c(C)cc(C)cc3C)n2)c1 [Compound 1143, N-[(2-oxo-1H-pyridin-3-yl)sulfonyl]-6-(3-propoxyphenyl)-2-(2,4,6-trimethylphenoxy)pyridine-3-carboxamide]
+++ (“+++” means <3 uM) | CC(C)Oc1ccc(-c2ccc(C(=O)NS(=O)(=O)c3cccc(N)n3)c(N3C[C@H](C)C[C@H](C)C3)n2)cn1 [Compound 1145, N-[(6-amino-2-pyridyl)sulfonyl]-2-[(3R,5S)-3,5-dimethyl-1-piperidyl]-6-(6-isopropoxy-3-pyridyl)pyridine-3-carboxamide]
++ (“++” means between 3 uM and 10 uM) | COc1ccc(-c2ccc(C(=O)NS(=O)(=O)c3cccc(N)n3)c(Oc3c(C)cc(C)cc3C)n2)cc1OC [Compound 1146, N-[(6-amino-2-pyridyl)sulfonyl]-6-(3,4-dimethoxyphenyl)-2-(2,4,6-trimethylphenoxy)pyridine-3-carboxamide]
++ (“++” means between 3 uM and 10 uM) | Cc1cc(C)c(Oc2nc(-c3ccc(C(C)(C)O)cc3)ccc2C(=O)NS(=O)(=O)c2cccc(N)n2)c(C)c1 [Compound 1147, N-[(6-amino-2-pyridyl)sulfonyl]-6-[4-(1-hydroxy-1-methyl-ethyl)phenyl]-2-(2,4,6-trimethylphenoxy)pyridine-3-carboxamide]
+++ (“+++” means <3 uM) | Cc1cc(C)c(Oc2nc(C(C)(C)C)ccc2C(=O)NS(=O)(=O)c2cnc(N)s2)c(C)c1 [Compound 1148, N-(2-aminothiazol-5-yl)sulfonyl-6-tert-butyl-2-(2,4,6-trimethylphenoxy)pyridine-3-carboxamide]
+++ (“+++” means <3 uM) | Cc1ccc(Oc2nc(-c3cc(F)cc(OC(C)C)c3)ccc2C(=O)NS(=O)(=O)c2cccc(N)n2)c(C)c1 [Compound 1150, N-[(6-amino-2-pyridyl)sulfonyl]-2-(2,4-dimethylphenoxy)-6-(3-fluoro-5-isopropoxy-phenyl)pyridine-3-carboxamide]
++ (“++” means between 3 uM and 10 uM) | COc1ccc(F)cc1-c1ccc(C(=O)NS(=O)(=O)c2ccc[nH]c2=O)c(Oc2c(C)cc(C)cc2C)n1 [Compound 1151, 6-(5-fluoro-2-methoxy-phenyl)-N-[(2-oxo-1H-pyridin-3-yl)sulfonyl]-2-(2,4,6-trimethylphenoxy)pyridine-3-carboxamide]
+ (“+” means greater than 10 uM) | CC1(Cn2nc(C(C)(C)C)cc2C(=O)NS(=O)(=O)c2cccc(N)c2)CCCCC1 [Compound 1152, N-(3-aminophenyl)sulfonyl-5-tert-butyl-2-[(1-methylcyclohexyl)methyl]pyrazole-3-carboxamide]
+++ (“+++” means <3 uM) | COc1nc(C)ccc1S(=O)(=O)NC(=O)c1ccc(C(C)(C)C)nc1Oc1c(C)cc(C)cc1C [Compound 1153, 6-tert-butyl-N-[(2-methoxy-6-methyl-3-pyridyl)sulfonyl]-2-(2,4,6-trimethylphenoxy)pyridine-3-carboxamide]
